# Biological target: rhodopsin (Bos taurus, UniProt P02699)
# Test: extra MII stabilization assay
# Assay type: biochemical
# Sequence of rhodopsin (P02699 whole entry): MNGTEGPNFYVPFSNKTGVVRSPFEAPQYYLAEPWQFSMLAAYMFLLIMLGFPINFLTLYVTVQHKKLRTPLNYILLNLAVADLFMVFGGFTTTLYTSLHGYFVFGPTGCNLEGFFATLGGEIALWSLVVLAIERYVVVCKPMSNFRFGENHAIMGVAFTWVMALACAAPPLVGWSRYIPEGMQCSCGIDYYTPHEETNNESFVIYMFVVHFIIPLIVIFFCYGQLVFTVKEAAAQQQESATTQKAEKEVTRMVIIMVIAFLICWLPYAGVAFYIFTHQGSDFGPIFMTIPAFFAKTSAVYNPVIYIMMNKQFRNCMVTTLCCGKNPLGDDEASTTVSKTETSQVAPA
row,EC50,Substance
1,3 ± 0.28 mM,KM 05703 [compound 4]
2,16.3 ± 12.3 mM,RJC 01340 [compound 3]
3,11.8 ± 6.7 mM,AW 00987 [compound 5]
